From ChEMBL document CHEMBL5506066, “Potency-Enhanced Peptidomimetic VHL Ligands with Improved Oral Bioavailability” (J Med Chem, 2024)

Assays:
[1] = target: T1, von Hippel-Lindau disease tumor suppressor (Homo sapiens, UniProt P40337)
[2] = target: T1, von Hippel-Lindau disease tumor suppressor; assay: biochemical
Description: Binding affinity to VHL (unknown origin)-NanoLuc fusion protein expressed in HEK293 cells assessed as apparent dissociation constant incubated for 30 mins in presence of digitonin by NanoBRET assay

T1 sequence (P40337 whole entry): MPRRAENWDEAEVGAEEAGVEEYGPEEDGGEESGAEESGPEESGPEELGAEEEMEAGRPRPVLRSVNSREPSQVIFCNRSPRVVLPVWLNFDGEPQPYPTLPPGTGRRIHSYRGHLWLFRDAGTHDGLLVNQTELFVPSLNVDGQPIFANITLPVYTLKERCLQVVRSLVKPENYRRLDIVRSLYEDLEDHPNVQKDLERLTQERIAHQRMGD

Row | SMILES | Kd [1] [µM] | Kd [2] [µM]
1 | CC(C)(C)[C@@H](C(=O)N1C[C@H](O)C[C@H]1C(=O)N[C@H](Cc1ccc(-c2ccccc2)cc1)C(N)=O)n1cc(C2CC2)nn1 | 0.085 | 0.071
2 | NC(=O)[C@@H](Cc1ccc(-c2ccccc2)cc1)NC(=O)[C@@H]1C[C@@H](O)CN1C(=O)[C@@H](n1cc(C2CC2)nn1)C12CC3CC(CC(C3)C1)C2 | 0.067 | 0.083
3 | CC(=O)N[C@@H](Cc1ccccc1)C(=O)N1C[C@H](O)C[C@H]1C(=O)N[C@H](Cc1ccc(-c2ccccc2)cc1)C(N)=O | > 57.5 | 18.1
4 | CC(=O)N[C@H](C(=O)N1C[C@H](O)C[C@H]1C(=O)N[C@H](Cc1ccc(-c2ccccc2)cc1)C(N)=O)C1CCNCC1 | > 57.5 | 11.5
5 | CC(=O)N[C@@H](CC1CC1)C(=O)N1C[C@H](O)C[C@H]1C(=O)N[C@H](Cc1ccc(-c2ccccc2)cc1)C(N)=O | 31.1 | 12.9
6 | Cc1ncsc1-c1ccc([C@H](C)NC(=O)[C@@H]2C[C@@H](O)CN2C(=O)[C@@H](n2cc(C3CC3)nn2)C(C)(C)C)cc1 | 0.0033 | 0.0039
7 | CC(=O)NC(C(=O)N1C[C@H](O)C[C@H]1C(=O)N[C@H](Cc1ccc(-c2ccccc2)cc1)C(N)=O)C12CC(C(F)(F)F)(C1)C2 (stereo partly drawn) | 6.6 | 2.4
8 | CC(=O)N[C@]1(C(=O)N2C[C@H](O)C[C@H]2C(=O)N[C@H](Cc2ccc(-c3ccccc3)cc2)C(N)=O)CC1(C)C | > 57.5 | > 51.8
9 | Cc1cc(C2(C(=O)N3C[C@H](O)C[C@H]3C(=O)N[C@H](Cc3ccc(-c4ccccc4)cc3)C(N)=O)CC2)on1 | > 57.5 | > 51.8
10 | CC(=O)N[C@H](C(=O)N1C[C@H](O)C[C@H]1C(=O)N[C@H](Cc1ccc(-c2ccccc2)cc1)C(N)=O)C1(C)CC1 | 15.4 | 3.9
11 | CC(=O)NC1(C(=O)N2C[C@H](O)C[C@H]2C(=O)N[C@H](Cc2ccc(-c3ccccc3)cc2)C(N)=O)CCCCC1 | > 57.5 | > 51.8
12 | CC(C)(C)[C@H](N=[N+]=[N-])C(=O)N1C[C@H](O)C[C@H]1C(=O)N[C@H](Cc1ccc(-c2ccccc2)cc1)C(N)=O | 35 | 23.9
13 | CC(=O)N[C@H](C(=O)N1C[C@H](O)C[C@H]1C(=O)N[C@H](Cc1ccc(-c2ccc(F)cn2)cc1)C(N)=O)C(C)(C)C | 6.6 | 2.9
14 | CC(=O)N[C@H](C(=O)N1C[C@H](O)C[C@H]1C(=O)N[C@H](Cc1ccc(C)cc1)C(N)=O)C(C)(C)C | > 57.5 | > 51.8
15 | CC(C)(C)[C@@H](C(=O)N1C[C@H](O)C[C@H]1C(=O)N[C@H](Cc1ccc(-c2ccccc2)cc1)C(N)=O)n1cc(C(N)=O)nn1 | 1.9 | 0.21
16 | CC(=O)N[C@H](C(=O)N1C[C@H](O)C[C@H]1C(=O)N[C@H](Cc1ccc(-c2ccc(F)c(Cl)c2)cc1)C(N)=O)C(C)(C)C | 11 | 3.5
17 | CC(=O)NCC(=O)N1C[C@H](O)C[C@H]1C(=O)N[C@H](Cc1ccc(-c2ccccc2)cc1)C(N)=O | > 57.5 | > 51.8
18 | CC(=O)N[C@H](C(=O)N1C[C@H](O)C[C@H]1C(=O)N[C@H](Cc1ccc(-c2ccccc2Cl)cc1)C(N)=O)C(C)(C)C | 5.5 | 1.8
19 | CC(=O)N[C@@]1(C(=O)N2C[C@H](O)C[C@H]2C(=O)N[C@H](Cc2ccc(-c3ccccc3)cc2)C(N)=O)CC1(C)C | > 57.5 | > 51.8
20 | CC[C@H](C)[C@@H](C(=O)N1C[C@H](O)C[C@H]1C(=O)N[C@H](Cc1ccc(-c2ccccc2)cc1)C(N)=O)n1cc(C2CC2)nn1 | 0.074 | 0.087
21 | CC(=O)N[C@H](C(=O)N1C[C@H](O)C[C@H]1C(=O)N[C@H](Cc1ccc(-c2ccccc2)cc1)C(N)=O)C12CC3CC(CC(C3)C1)C2 | 0.68 | 0.41
22 | CC(=O)N[C@H](C(=O)N1C[C@H](O)C[C@H]1C(=O)N[C@H](Cc1ccc(-c2cccc(Cl)n2)cc1)C(N)=O)C(C)(C)C | > 57.5 | 4.2
23 | Cc1cnn([C@H](C(=O)N2C[C@H](O)C[C@H]2C(=O)N[C@H](Cc2ccc(-c3ccccc3)cc2)C(N)=O)C(C)C)c1 | 25.4 | 18.6
24 | CC(=O)N[C@H](C(=O)N1C[C@H](O)C[C@H]1C(=O)N[C@H](Cc1ccc(-c2ccc(F)cc2)cc1)C(N)=O)C(C)(C)C | 11.8 | 2.1
25 | Cc1ccc(CC(=O)N2C[C@H](O)C[C@H]2C(=O)N[C@H](Cc2ccc(-c3ccccc3)cc2)C(N)=O)cn1 | > 57.5 | > 51.8
26 | CC(=O)N1CCC[C@H]1C(=O)N1C[C@H](O)C[C@H]1C(=O)N[C@H](Cc1ccc(-c2ccccc2)cc1)C(N)=O | > 57.5 | 12.7
27 | CSC[C@H](NC(C)=O)C(=O)N1C[C@H](O)C[C@H]1C(=O)N[C@H](Cc1ccc(-c2ccccc2)cc1)C(N)=O | 46.5 | 18.6
28 | CC(=O)N[C@H](C(=O)N1C[C@H](O)C[C@H]1C(=O)N[C@H](Cc1ccc(-c2ccccc2)cc1)C(N)=O)C1CCN(C(C)=O)CC1 | > 57.5 | 2.7
29 | CC(=O)NC(C)(C)C(=O)N1C[C@H](O)C[C@H]1C(=O)N[C@H](Cc1ccc(-c2ccccc2)cc1)C(N)=O | > 57.5 | > 51.8
